Measurements published in patent publication US7176316B2, “Amino-piperidine derivatives” (Hoffmann-La Roche Inc., priority 2003, dated 2007).

molecular target: T1, hGlyT-1b (Homo sapiens, UniProt P48067); experiment: Glycine uptake inhibition assay (hGlyT-1b), [3H]-glycine uptake in transfected CHO cells; conditions: not given
T1 sequence (P48067 1-652 isoform P48067-3): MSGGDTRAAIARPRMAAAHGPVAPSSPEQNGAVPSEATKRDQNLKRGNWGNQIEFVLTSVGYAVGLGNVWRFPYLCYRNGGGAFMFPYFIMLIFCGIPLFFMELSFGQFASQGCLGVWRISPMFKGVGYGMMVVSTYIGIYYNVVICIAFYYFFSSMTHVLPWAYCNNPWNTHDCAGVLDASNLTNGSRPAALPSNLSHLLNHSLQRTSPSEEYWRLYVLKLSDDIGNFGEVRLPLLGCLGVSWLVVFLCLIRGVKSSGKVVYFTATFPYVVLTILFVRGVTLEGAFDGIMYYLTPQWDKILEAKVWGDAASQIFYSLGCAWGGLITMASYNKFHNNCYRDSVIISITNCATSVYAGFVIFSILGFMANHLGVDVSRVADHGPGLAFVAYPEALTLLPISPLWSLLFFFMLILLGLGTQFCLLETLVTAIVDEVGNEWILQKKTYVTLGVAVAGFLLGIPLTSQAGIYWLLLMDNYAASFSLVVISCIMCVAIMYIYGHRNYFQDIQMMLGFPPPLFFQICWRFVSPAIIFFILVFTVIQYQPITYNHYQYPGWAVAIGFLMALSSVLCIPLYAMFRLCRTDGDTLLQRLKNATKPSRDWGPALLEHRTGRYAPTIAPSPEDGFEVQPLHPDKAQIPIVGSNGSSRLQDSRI

| Compound | IC50 [µM] |
| --- | --- |
| O=S(=O)(c1ccc(Cl)c(Cl)c1)N(c1ccccc1)C1CCN([C@@H]2CCCC[C@@H]2c2ccccc2)CC1 (racemic) [Example 1, (+/−)-3,4-Dichloro-N-phenyl-N-[cis-1-(2-phenyl-cyclohexyl)-piperidin-4-yl]-benzenesulfonamide] | 0.048 |
| COc1ccc(S(=O)(=O)N(c2cccc(OC)c2)C2CCN([C@@H]3CCCC[C@@H]3c3ccccc3)CC2)cc1 (racemic) [Example 3, (+/−)-4-Methoxy-N-(3-methoxy-phenyl)-N-[cis-1-(2-phenyl-cyclohexyl)-piperidin-4-yl]-benzenesulfonamide] | 0.094 |
| COc1ccc(S(=O)(=O)N(c2ccccc2)C2CCN([C@@H]3CCCC[C@@H]3c3ccccc3)CC2)cc1 (racemic) [Example 11, (+/−)-4-Methoxy-N-phenyl-N-[cis-1-(2-phenyl-cyclohexyl)-piperidin-4-yl]-benzenesulfonamide] | 0.056 |
| Cc1ccc(S(=O)(=O)N(c2ccc(F)cc2)C2CCN([C@@H]3CCCC[C@@H]3c3ccccc3)CC2)cc1 (racemic) [Example 67, (+/−)-N-(4-Fluoro-phenyl)-4-methyl-N-[cis-1-(2-phenyl-cyclohexyl)-piperidin-4-yl]-benzenesulfonamide] | 0.099 |
| COc1ccc(S(=O)(=O)N(c2ccc(F)cc2)C2CCN([C@@H]3CCCC[C@@H]3c3ccccc3)CC2)cc1 (racemic) [Example 69, (+/−)-N-(4-Fluoro-phenyl)-4-methoxy-N-[cis-1-(2-phenyl-cyclohexyl)-piperidin-4-yl]-benzenesulfonamide] | 0.029 |
| COc1ccc(S(=O)(=O)N(c2cccc(C(F)(F)F)c2)C2CCN([C@@H]3CCCC[C@@H]3c3ccccc3)CC2)cc1 (racemic) [Example 75, (+/−)-4-Methoxy-N-[cis-1-(2-phenyl-cyclohexyl)-piperidin-4-yl]-N-(3-trifluoromethyl-phenyl)-benzenesulfonamide] | 0.068 |
| COc1ccc(S(=O)(=O)N(c2ccccc2)C2CCN([C@@H]3CCCC[C@@]3(O)c3ccccc3)CC2)cc1 (racemic) [Example 99, (+/−)-N-[cis-1-(2-Hydroxy-2-phenyl-cyclohexyl)-piperidin-4-yl]-4-methoxy-N-phenyl-benzenesulfonamide] | 0.028 |
| COc1ccc(S(=O)(=O)N(c2ccc(Cl)cc2)C2CCN([C@@H]3CCCC[C@@]3(O)c3ccccc3)CC2)cc1 (racemic) [Example 102, (+/−)-N-(4-Chloro-phenyl)-N-[cis-1-(2-Hydroxy-2-phenyl-cyclohexyl)-piperidin-4-yl]-4-methoxy-benzenesulfonamide] | 0.092 |
| COc1ccc(S(=O)(=O)N(c2ccc(Cl)cc2)C2CCN([C@@H]3CCCC[C@@]3(O)c3cccnc3)CC2)cc1 (racemic) [Example 105, (+/−)-N-(4-Chloro-phenyl)-N-[cis-1-(2-hydroxy-2-pyridin-3-yl-cyclohexyl)-piperidin-4-yl]-4-methoxy-benzenesulfonamide] | 0.084 |
| COc1ccc(S(=O)(=O)N(c2ccccc2)C2CCN([C@@H]3CCCC[C@@]3(O)c3ccc(Cl)cc3)CC2)cc1 (racemic) [Example 107, (+/−)-N-{cis-1-[2-(4-Chloro-phenyl)-2-hydroxy-cyclohexyl]-piperidin-4-yl}-4-methoxy-N-phenyl-benzenesulfonamide] | 0.083 |
| COc1ccc(S(=O)(=O)N(c2ccccc2)C2CCN([C@@H]3CCCC[C@@]3(O)c3ccc(F)cc3)CC2)cc1 (racemic) [Example 108, (+/−)-N-{cis-1-[2-(4-Fluoro-phenyl)-2-hydroxy-cyclohexyl]-piperidin-4-yl}-4-methoxy-N-phenyl-benzenesulfonamide] | 0.04 |
| COc1ccc(S(=O)(=O)N(c2ccccc2)C2CCN([C@@H]3CCCC[C@@]3(O)c3ccncc3)CC2)cc1 (racemic) [Example 109, (+/−)-N-[cis-1-(2-Hydroxy-2-pyridin-4-yl-cyclohexyl)-piperidin-4-yl]-4-methoxy-N-phenyl-benzenesulfonamide] | 0.073 |
| COc1ccc(S(=O)(=O)N(c2ccccc2)C2CCN([C@@H]3CCCC[C@@]3(O)c3cccnc3)CC2)cc1 (racemic) [Example 110, (+/−)-N-[cis-1-(2-Hydroxy-2-pyridin-3-yl-cyclohexyl)-piperidin-4-yl]-4-methoxy-N-phenyl-benzenesulfonamide] | 0.076 |
| COc1ccc(S(=O)(=O)N(c2ccccc2)C2CCN([C@@H]3CCCC[C@@]3(O)c3ccccc3C)CC2)cc1 (racemic) [Example 111, (+/−)-N-[cis-1-(2-Hydroxy-2-o-tolyl-cyclohexyl)-piperidin-4-yl]-4-methoxy-N-phenyl-benzenesulfonamide] | 0.068 |
| COc1ccc(S(=O)(=O)N(c2ccc(F)cc2)C2CCN([C@@H]3CCCC[C@@]3(O)c3ccccc3)CC2)cc1 (racemic) [Example 112, (+/−)-N-(4-Fluoro-phenyl)-N-[cis-1-(2-Hydroxy-2-phenyl-cyclohexyl)-piperidin-4-yl]-4-methoxy-benzenesulfonamide] | 0.061 |
| COc1ccc(S(=O)(=O)N(c2ccc(F)cc2)C2CCN([C@@H]3CCCC[C@@]3(O)c3ccc(F)cc3)CC2)cc1 (racemic) [Example 114, (+/−)-N-(4-Fluoro-phenyl)-N-{cis-1-[2-(4-fluoro-phenyl)-2-hydroxy-cyclohexyl]-piperidin-4-yl}-4-methoxy-benzenesulfonamide] | 0.066 |
| COc1ccc(S(=O)(=O)N(c2ccc(F)cc2)C2CCN([C@@H]3CCCC[C@@]3(O)c3ccncc3)CC2)cc1 (racemic) [Example 115, (+/−)-N-(4-Fluoro-phenyl)-N-[cis-1-(2-hydroxy-2-pyridin-4-yl-cyclohexyl)-piperidin-4-yl]-4-methoxy-benzenesulfonamide] | 0.071 |
| COc1ccc(S(=O)(=O)N(c2cccc(C(F)(F)F)c2)C2CCN([C@@H]3CCCC[C@@]3(O)c3ccncc3)CC2)cc1 (racemic) [Example 120, (+/−)-N-[cis-1-(2-Hydroxy-2-pyridin-4-yl-cyclohexyl)-piperidin-4-yl]-4-methoxy-N-(3-trifluoromethyl-phenyl)-benzenesulfonamide] | 0.091 |
| COc1ccc(S(=O)(=O)N(c2cccc(C(F)(F)F)c2)C2CCN([C@@H]3CCCC[C@@]3(O)c3cccnc3)CC2)cc1 (racemic) [Example 121, (+/−)-N-[cis-1-(2-Hydroxy-2-pyridin-3-yl-cyclohexyl)-piperidin-4-yl]-4-methoxy-N-(3-trifluoromethyl-phenyl)-benzenesulfonamide] | 0.071 |
| COc1ccc(S(=O)(=O)N(c2cccc(OC)c2)C2CCN([C@@H]3CCCC[C@@]3(O)c3ccccc3)CC2)cc1 (racemic) [Example 123, (+/−)-N-[cis-1-(2-Hydroxy-2-phenyl-cyclohexyl)-piperidin-4-yl]-4-methoxy-N-(3-methoxy-phenyl)-benzenesulfonamide] | 0.095 |
| COc1ccc(S(=O)(=O)N(c2cccc(OC)c2)C2CCN([C@@H]3CCCC[C@@]3(O)c3ccc(F)cc3)CC2)cc1 (racemic) [Example 125, (+/−)-N-{cis-1-[2-(4-Fluoro-phenyl)-2-hydroxy-cyclohexyl]-piperidin-4-yl}-4-methoxy-N-(3-methoxy-phenyl)-benzenesulfonamide] | 0.096 |
| COc1ccc(S(=O)(=O)N(c2ccccc2)C2CCN([C@@H]3CCCC[C@]3(O)c3ccccc3)CC2)cc1 (racemic) [Example 159, (+/−)-N-[trans-1-(2-Hydroxy-2-phenyl-cyclohexyl)-piperidin-4-yl]-4-methoxy-N-phenyl-benzenesulfonamide] | 0.068 |
| COc1ccc(S(=O)(=O)N(c2ccc(F)cc2)C2CCN([C@@H]3COCC[C@@]3(O)c3ccccc3)CC2)cc1 (racemic) [Example 163, (+/−)-N-(4-Fluoro-phenyl)-N-[cis-1-(4-hydroxy-4-phenyl-tetrahydro-pyran-3-yl)-piperidin-4-yl]-4-methoxy-benzenesulfonamide] | 0.085 |
| COc1ccc(S(=O)(=O)N(c2ccccc2)C2CCN([C@@H]3CCCC[C@@]3(O)c3ccccc3)CC2)cc1 [Example 100, (+)-N-[cis-1-(2-Hydroxy-2-phenyl-cyclohexyl)-piperidin-4-yl]-4-methoxy-N-phenyl-benzenesulfonamide] | 0.015 |

same assay, conditions: read-out: IC50 (μM) at GlyT-1

| Compound | IC50 [µM] |
| --- | --- |
| (+)-4-Methoxy-N-phenyl-N-[cis-1-(2-phenyl-cyclohexyl)-piperidin-4-yl]-benzenesulfonamide [Example 96] | 0.049 |
